Measurements from US10307413B2, “Tetrahydro- and dihydro-isoquinoline PRMT5 inhibitors and uses thereof” (Epizyme, Inc., priority 2013, dated 2019).
pEC50: −log10 of the molar value.

Assays:
Z-138 cell line = test: Z-138 Proliferation Assay (Cell Titer Glo, 5 days); type: cell-based; conditions: Homo sapiens, 120 h; Z-138 cells, 5 days; read-out: Proliferation EC50
In short: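 Z-138 cells exposed 5 days at 37 °C, 5% CO2 to nine-point 3-fold dilutions (final top 20 μM, 0.2% DMSO), in triplicate. Viability read as ATP by CellTiter-Glo luminescence; IC50 from 4-parameter fit of normalized dose-response curves.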

[1] = system: symmetric di-methyl arginine in Z-138 cells; test: Z-138 Methylation Assay (In Cell Western for symmetric di-methyl arginine and DNA content); type: cell-based; conditions: Homo sapiens, read-out: ICW EC50
In short: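 Z-138 cells (50,000 cells/mL) treated with compound 96 h at 37 °C, then fixed and stained for symmetric di-methyl arginine (800 nm) with DRAQ5 DNA counterstain (700 nm) on Licor Odyssey.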

SMILES | pEC50 (Z-138 cell line) | pEC50 [1]
O=C(NCC(O)CN1CCc2ccccc2C1)c1ccc(OC2CCNC2)cc1 (centres unmarked) [Compound 176] | 5.00 to 6.00 | > 7.00
O=C(NC[C@H](O)CN1CCc2ccccc2C1)c1ccnc(NC2CCN(CC(F)(F)F)CC2)c1 [Compound 224] | 6.00 to 7.00 | > 7.00
Cn1ccc(C(=O)NCC(O)CN2CCc3ccccc3C2)n1 (centres unmarked) [Compound 149] | < 4.70 | 5.00 to 6.00
CN1CCC(Nc2ccc(C(=O)NCC(O)CN3CCc4ccccc4C3)cc2)CC1 (centres unmarked) [Compound 139] | 5.00 to 6.00 | > 7.00
Cn1nccc1Nc1cc(C(=O)NC[C@H](O)CN2CCc3ccccc3C2)ccn1 [Compound 325] | 6.00 to 7.00 | > 7.00
CC(=O)N1CCC(Nc2cc(C(=O)NC[C@H](O)CN3CCc4ccccc4C3)ccn2)C1 (some centres unmarked) [Compound 228] | 6.00 to 7.00 | > 7.00
O=C(NC[C@H](O)CN1CCc2ccccc2C1)c1ccc2c(c1)OCCO2 [Compound 274] | 5.00 to 6.00 | 6.00 to 7.00
COc1ccc(C(=O)NCC(O)CN2CCc3ccccc3C2)cc1NC1CCOCC1 (centres unmarked) [Compound 67] | 4.30 to 5.00 | 6.00 to 7.00
O=C(NC[C@H](O)CN1CCc2ccccc2C1)c1ccnc(NC2CCNC2)c1 (some centres unmarked) [Compound 201] | 5.00 to 6.00 | 6.00 to 7.00
O=C(NC[C@H](O)CN1CCc2ccccc2C1)c1cncc(NC2CCOCC2)c1 [Compound 298] | 6.00 to 7.00 | > 7.00
O=C(NC[C@H](O)CN1CCc2ccccc2C1)c1c(O)ccc2ccccc12 [Compound 327] | < 4.70 | 6.00 to 7.00
O=C(NC[C@H](O)CN1CCc2ccccc2C1)c1cc2cccc(Cl)c2[nH]1 [Compound 276] | 5.00 to 6.00 | 6.00 to 7.00
O=C(NC[C@H](O)CN1CCc2ccccc2C1)c1cc(OC2CCNCC2)ncn1 [Compound 258] | 4.30 to 5.00 | 6.00 to 7.00
C[C@H]1COCCC1Nc1cccc(C(=O)NC[C@H](O)CN2CCc3ccccc3C2)c1 (some centres unmarked) [Compound 213] | 6.00 to 7.00 | > 7.00
CC(C)N1CCC(Nc2cccc(C(=O)NCC(O)CN3CCc4ccccc4C3)c2)CC1 (centres unmarked) [Compound 103] | 4.30 to 5.00 | > 7.00
CN(C)CCN(C)c1cc(C(=O)NC[C@H](O)CN2CCc3ccccc3C2)ccn1 [Compound 186] | 5.00 to 6.00 | > 7.00

SMILES | pEC50 (Z-138 cell line) | pEC50 [1]
O=C(NC[C@H](O)CN1CCc2ccccc2C1)c1ccnc(NCc2ccccn2)c1 [Compound 191] | 6.00 to 7.00 | > 7.00
O=C(NCC(O)CN1CCc2ccccc2C1)c1cccc(NC2CCOCC2)c1 (centres unmarked) [Compound 16, N-(3-(3,4-dihydroisoquinolin-2(1H)-yl)-2-hydroxypropyl)-3-((tetrahydro-2H-pyran-4-yl)amino)benzamide] | 6.00 to 7.00 | > 7.00
O=C(NC[C@H](O)CN1CCc2ccccc2C1)c1cc2c(F)cccc2[nH]1 [Compound 296] | 6.00 to 7.00 | > 7.00
CN(CC(O)CN1CCc2ccccc2C1)C(=O)c1cccc(NC2CCOCC2)c1 (centres unmarked) [Compound 71] | 5.00 to 6.00 | 6.00 to 7.00
CC(C)(C)c1cc(Nc2cc(C(=O)NC[C@H](O)CN3CCc4ccccc4C3)ccn2)n[nH]1 [Compound 326] | 6.00 to 7.00 | > 7.00
CN1CCC(Nc2cccc(C(=O)NCC(O)CN3CCc4ccccc4C3)c2)CC1 (centres unmarked) [Compound 123] | 5.00 to 6.00 | 6.00 to 7.00
O=C(NCC(O)CN1CCc2ccccc2C1)c1cc(Cl)cc(NC2CCOCC2)c1 (centres unmarked) [Compound 64] | 5.00 to 6.00 | 6.00 to 7.00
CN1CCC(Nc2cc(C(=O)NC[C@H](O)CN3CCc4ccccc4C3)ccn2)C1 (some centres unmarked) [Compound 255] | 5.00 to 6.00 | > 7.00
O=C(NC[C@H](O)CN1CCc2ccccc2C1)c1cc2ccccc2o1 [Compound 271] | 5.00 to 6.00 | 6.00 to 7.00
O=C(NC[C@H](O)CN1CCc2ccccc2C1)c1cccc2[nH]cnc12 [Compound 241] | 5.00 to 6.00 | 6.00 to 7.00
COc1cc(C(=O)NC[C@H](O)CN2CCc3ccccc3C2)cc(NC2CCC2)n1 [Compound 332] | > 7.00 | > 7.00
O=C(NC[C@H](O)CN1CCc2ccccc2C1)c1nc2cc(Br)ccc2[nH]1 [Compound 319] | 5.00 to 6.00 | > 7.00
CN(C[C@H](O)CN1CCc2ccccc2C1)C(=O)c1cccc(NC2CCOCC2)c1 [Compound 111] | 5.00 to 6.00 | 6.00 to 7.00
O=C(NC[C@H](O)CN1CCc2ccccc2C1)c1ccnc(OC2CCN(CC(F)(F)F)CC2)c1 [Compound 203] | 6.00 to 7.00 | > 7.00
O=C(NC[C@H](O)CN1CCc2ccccc2C1)c1ccc2ncsc2c1 [Compound 273] | 5.00 to 6.00 | 6.00 to 7.00
